Results as given in patent US20190031773A1, “INHIBITORS AND ANTAGONISTS OF HUMAN PYCR1” (AGENCY FOR SCIENCE, TECHNOLOGY AND RESEARCH, priority 2017, published 2019).

Experiments:
[1] = molecular target: T1, PYCR1 full length recombinant enzyme (aa 1-319) (Homo sapiens, UniProt P32322); assay: PYCR1 Inhibition Assay (NAD(P)H-Glo luminescence); assay type: biochemical; settings: 5 mM L-proline + 0.5 mM NAD+, 4.2 nM enzyme, 45 min at room temperature
T1 construct: PYCR1 full length recombinant enzyme (aa 1-319) with a 6His-tag at the N-terminus; 6His (N); made in house; host or cells: E. coli
T1 sequence (P32322 1-319): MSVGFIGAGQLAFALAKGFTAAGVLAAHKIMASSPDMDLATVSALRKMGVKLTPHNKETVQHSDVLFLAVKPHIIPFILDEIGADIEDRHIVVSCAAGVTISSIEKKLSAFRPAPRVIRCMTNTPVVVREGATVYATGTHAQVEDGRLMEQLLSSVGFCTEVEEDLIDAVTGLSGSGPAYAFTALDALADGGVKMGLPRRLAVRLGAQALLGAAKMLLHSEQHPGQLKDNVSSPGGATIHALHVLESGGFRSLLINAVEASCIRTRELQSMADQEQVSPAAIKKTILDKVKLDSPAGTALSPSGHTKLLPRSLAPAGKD
Text: An example for such assay may look as follows:
The assay is based on the ability of PYCR1 to catalyze the oxidation of L-proline to L-1 pyrroline-5-carboxylate which occurs concomitant with the reduction of the cosubstrate NAD^+ to its reduced form NADH+H^+. The amount of NADH+H^+ was quantified using the NAD(P)H-Glo™ kit from Promega (catalogue number G9062). Components of the kit generate a luciferase-based luminescence signal the intensity of which is linearly proportional to the amount of NADH+H^+ generated by the PYCR1 reaction and consequently the PYCR1 activity. The luminescence intensity was taken as the measure for the amount of NADH+H^+ generated by PYCR1. […] 40 nl Test compound (dissolved and serially diluted in DMSO at final concentrations during the enzymatic reaction ranging from 6.9E-09 M to 4.5E-05 M) is added to the well of a white 1536-well microtiter plate using an acoustic dispenser (Echo Liquid Handler from Labcyte Inc.) • 2. […] Preincubation of enzyme and test compound for approximately 15 min at room temperature • 4. Add 2.0 μl Substrate mix in assay buffer (5 mM L-proline+0.5 mM NAD^+ final concentration during the enzymatic reaction) • 5. 45 min PYCR1 reaction at room temperature (linear range of the enzymatic reaction) • 6. Add 1.0 μl Stopping agent in assay buffer (2 mM ZnCl2 final concentration) • 7. Incubate for 15 min at room temperature • 8. Add 2.0 μl NAD(P)H-Glo™ reagent (Promega) • 9. Incubate for 30-150 min at room temperature for generation of the persistent luminescence signal • 10. Measure luminescence intensity in a ViewLux Imager (PerkinElmer)

[2] = test system: rat MH3924A cells
Protocol: Morris hepatoma cells (MH3924A) were cultured in Dulbecco's modified eagle medium (DMEM) media supplemented with 10% fetal bovine serum (FBS), 100 IU/ml penicillin, 100 μg/ml streptomycin. To assess cell proliferation, cells were seeded in T25 flasks and incubated in DMEM complete medium for 24 hours to allow attachment. Subsequently, seeding cells were infected with shRNA lentivirus in the presence of 8μg/ ml of polybrene for about 7 hours, cells were grown for varying lengths of time, at the end of which they were detached by trypsinization and counted with Countess (Life Technologies, Carlsbad, USA).

[3] = test system: rat MH3924A cells; assay: Subcutaneous MH3924A xenograft model; assay type: in vivo; settings: scid mice
Text: Female scid mice (InVivos, Singapore) were subcutaneously inoculated with 1×10^6rat MH3924A cells that were stably transfected with either shRNA Pycr1.2 or scrambled control shRNA. Mice were sacrificed and tumors excised 3 weeks later.

[4] = test system: rat MH3924A cells; assay: Orthotopic MH3924A xenograft models, doxycycline-inducible shRNA; assay type: in vivo, scid mice; settings: preventive setting, knockdown induced by doxycycline one day after orthotopic implantation
Text: The HCC model was created by the direct intrahepatic injection of rat MH3924A cells harboring inducible shRNA Pycr1.2 or scrambled shRNA constructs into scid mice (InVivos, Singapore). The mice were anesthetized and a midline incision was made to expose the liver. The cells were then slowly injected under the hepatic capsule into the upper left lobe of the liver using a 27-G needle. A pale, whitish color could be observed at the point of injection under the hepatic capsule. Gentle compression was applied with a cotton applicator to stop bleeding and reflux of the cells. The abdomen was closed with a 4-0 silk suture.
In the preventive setting (FIG. 7), shRNA expression was induced the day after cell injection by adding 1 μg/ml doxycycline to the drinking water. Two weeks later, animals were sacrificed and tumors excised for analysis (n=5).
In the therapeutic setting, mice were subjected to liver MRI (magnetic resonance imaging) 7 days (1st experiment, FIG. 8) or 10 days (2nd experiment, FIG. 9) after cell injection and shRNA expression was induced one or four days later by adding 1 μg/ml doxycycline to the drinking water. On day 19 (1st experiment) or 21 (2nd experiment), animals were subjected to liver MRI and sacrificed. Tumors were lysed and analyzed for PYCR1 by Western blot.

## O=C(CCCc1nc(-c2ccc(Cl)cc2)no1)Nc1ccccc1C(=O)O [2-({4-[3-(4-chlorophenyl)-1,2,4-oxadiazol-5-yl]butanoyl}amino)benzoic acid]
[1]
  IC50: 8 µM

## O=C(Cc1ccc(C(=O)O)cc1)NC(c1ccccc1)c1ccccc1N1CCCCC1 (centres unmarked) [4-(2-oxo-2-{[phenyl(2-piperidin-1-ylphenyl)methyl]amino}ethyl)benzoic acid]
[1]
  IC50: 7.3 µM

## COc1ccc(C(=O)c2oc3ccccc3c2CSCCC(=O)OC(C)(C)C)cc1C(=O)O [5-[(3-{[(3-tert-butoxy-3-oxopropyl)thio]methyl}-1-benzofuran-2-yl)carbonyl]-2-methoxybenzoic acid]
[1]
  IC50: 8.5 µM

## shRNA Pycr1.2: Rat PYCR1.2 shRNA: GAACCTGACACCCCACAACAA, short hairpin oligonucleotide targeting rat Pycr1 in lentiviral vector pLKO or pLKO-Tet
[2]; doxycycline-inducible PYCR1 knockdown MH3924A cell line, with vs without doxycycline
  cell growth: reduced cell growth
[2]; rat MH3924A cells, shRNA knockdown vs scrambled shRNA
  cell proliferation: reduced proliferation
[3]; MH3924A cells stably expressing shRNA, 3 weeks, n=5
  tumor weight: significantly reduced
[3]; tumors excised 3 weeks later
  tumor growth in vivo: significantly inhibited tumor growth
[4]
  tumor growth: significantly reduced tumor growth
